Key:
[1] = biological target: T1, Endothelin receptor type B (Homo sapiens, UniProt P24530); experiment: Antagonist activity towards human recombinant Endothelin B receptor expressed in chinese hamster ovary (CHO) cells determined using [125I]ET1 as radioligand; format: functional, cell-based
T1 sequence (P24530 whole entry): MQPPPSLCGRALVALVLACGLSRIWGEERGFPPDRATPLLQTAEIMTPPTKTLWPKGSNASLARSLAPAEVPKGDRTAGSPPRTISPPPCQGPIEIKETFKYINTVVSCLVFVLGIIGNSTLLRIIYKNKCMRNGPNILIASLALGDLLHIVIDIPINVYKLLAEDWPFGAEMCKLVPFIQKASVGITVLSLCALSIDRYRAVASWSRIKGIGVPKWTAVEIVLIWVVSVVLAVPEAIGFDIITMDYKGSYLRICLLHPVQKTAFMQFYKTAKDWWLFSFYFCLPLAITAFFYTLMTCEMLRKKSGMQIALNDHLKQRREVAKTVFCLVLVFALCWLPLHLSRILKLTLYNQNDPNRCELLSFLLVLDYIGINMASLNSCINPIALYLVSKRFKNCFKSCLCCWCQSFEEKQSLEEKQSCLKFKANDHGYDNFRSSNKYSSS

Endothelin-1 receptor = biological target: T2, Endothelin-1 receptor (Homo sapiens, UniProt P25101); experiment: Antagonist activity towards human recombinant Endothelin A receptor expressed in chinese hamster ovary (CHO) cells determined using [125I]ET1 as radioligand; format: functional, cell-based
T2 sequence (P25101 whole entry): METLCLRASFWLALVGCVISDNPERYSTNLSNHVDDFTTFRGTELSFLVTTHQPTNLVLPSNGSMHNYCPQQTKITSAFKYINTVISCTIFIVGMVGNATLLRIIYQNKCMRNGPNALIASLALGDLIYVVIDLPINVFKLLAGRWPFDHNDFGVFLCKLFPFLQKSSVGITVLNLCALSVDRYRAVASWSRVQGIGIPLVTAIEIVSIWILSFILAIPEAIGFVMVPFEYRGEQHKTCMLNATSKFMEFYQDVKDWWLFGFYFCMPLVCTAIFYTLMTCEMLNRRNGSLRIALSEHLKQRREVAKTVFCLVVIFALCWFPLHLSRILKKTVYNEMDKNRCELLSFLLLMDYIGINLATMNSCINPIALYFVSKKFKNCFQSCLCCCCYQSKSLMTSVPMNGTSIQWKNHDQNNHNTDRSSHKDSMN

Endothelin receptor = biological target: T3, Endothelin receptor (Rattus norvegicus, UniProt P26684+P21451); experiment: Inhibitory potency at native endothelin A and endothelin B receptors by inhibiting endothelin-1 contractions of rat aortic rings; format: functional
T3 sequence (P26684 whole entry): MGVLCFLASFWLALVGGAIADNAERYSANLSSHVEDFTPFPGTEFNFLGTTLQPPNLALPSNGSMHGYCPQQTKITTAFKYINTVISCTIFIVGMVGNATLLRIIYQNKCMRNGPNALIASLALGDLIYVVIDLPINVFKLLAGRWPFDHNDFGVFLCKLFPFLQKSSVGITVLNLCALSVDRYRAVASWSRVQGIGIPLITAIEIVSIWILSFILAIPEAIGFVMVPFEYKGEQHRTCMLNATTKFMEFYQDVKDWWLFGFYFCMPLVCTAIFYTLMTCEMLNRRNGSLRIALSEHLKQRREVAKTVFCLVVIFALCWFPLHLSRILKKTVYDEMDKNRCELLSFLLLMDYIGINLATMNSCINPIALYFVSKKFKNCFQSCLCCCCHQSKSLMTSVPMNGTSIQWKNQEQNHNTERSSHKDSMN
T3 sequence (P21451 whole entry): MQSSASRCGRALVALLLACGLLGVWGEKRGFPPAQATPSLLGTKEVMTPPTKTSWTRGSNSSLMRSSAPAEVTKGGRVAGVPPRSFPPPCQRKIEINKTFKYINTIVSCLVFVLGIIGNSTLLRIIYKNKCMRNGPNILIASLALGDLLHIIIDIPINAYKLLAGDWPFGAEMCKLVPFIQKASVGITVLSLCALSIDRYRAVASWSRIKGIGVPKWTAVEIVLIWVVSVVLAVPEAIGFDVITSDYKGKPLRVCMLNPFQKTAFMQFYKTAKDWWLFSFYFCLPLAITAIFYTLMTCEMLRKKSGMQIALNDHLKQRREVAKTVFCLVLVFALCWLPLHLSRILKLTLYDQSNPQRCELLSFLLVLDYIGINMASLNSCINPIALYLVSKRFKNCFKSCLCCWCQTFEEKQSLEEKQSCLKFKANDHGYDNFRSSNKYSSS

COc1ccc(CN2C(=O)CN[C@](c3ccc(F)c(C)c3)([C@H](Oc3nc(C)cc(C)n3)C(=O)O)c3ccccc32)cc1 (racemic)
IC50 [1]: 33.2 nM
IC50 (Endothelin-1 receptor): 7.3 nM
pA2 (Endothelin receptor): 6.53

CCCCCCN1C(=O)CN[C@](c2ccccc2)([C@H](Oc2nc(C)cc(C)n2)C(=O)O)c2ccccc21 (racemic)
IC50 [1]: 39.9 nM
IC50 (Endothelin-1 receptor): 23.7 nM
pA2 (Endothelin receptor): 6.71

Cc1cc(C)nc(O[C@H](C(=O)O)[C@@]2(c3ccccc3)NCC(=O)N(Cc3ccccc3)c3ccccc32)n1 (racemic)
IC50 [1]: 47.4 nM
IC50 (Endothelin-1 receptor): 6.4 nM
pA2 (Endothelin receptor): 7.32

COc1ccc(CN2C(=O)CN[C@](c3ccccc3)([C@H](Oc3nc(C)cc(C)n3)C(=O)O)c3ccccc32)cc1 (racemic)
IC50 [1]: 22.4 nM
pA2 (Endothelin receptor): 7.08

COc1ccc(CN2C(=O)CN[C@](c3cccc(C)c3)([C@H](Oc3nc(C)cc(C)n3)C(=O)O)c3ccccc32)cc1 (racemic)
IC50 [1]: 50.7 nM
IC50 (Endothelin-1 receptor): 6.3 nM
pA2 (Endothelin receptor): 6.32

CCCCc1cccc([C@]2([C@H](Oc3nc(C)cc(C)n3)C(=O)O)NCC(=O)N(Cc3ccc(OC)cc3)c3ccccc32)c1 (racemic)
IC50 [1]: 36.5 nM
IC50 (Endothelin-1 receptor): 7.9 nM
pA2 (Endothelin receptor): 7.69

Cc1cc(C)nc(O[C@H](C(=O)O)[C@@]2(c3ccccc3)NCC(=O)N(Cc3nn[nH]n3)c3ccccc32)n1 (racemic)
IC50 [1]: 65.6 nM
IC50 (Endothelin-1 receptor): 6.6 nM
pA2 (Endothelin receptor): 6.99

Cc1cc(C)nc(O[C@H](C(=O)O)[C@@]2(c3ccccc3)NCC(=O)N(Cc3c(F)cccc3F)c3ccccc32)n1 (racemic)
IC50 [1]: 17.7 nM
IC50 (Endothelin-1 receptor): 1.1 nM
pA2 (Endothelin receptor): 7.83

Cc1cc(C)nc(O[C@H](C(=O)O)[C@@]2(c3ccccc3)NCC(=O)N(Cc3ccc(F)cc3)c3ccccc32)n1 (racemic)
IC50 [1]: 49.7 nM
IC50 (Endothelin-1 receptor): 5.9 nM
pA2 (Endothelin receptor): 7.46

Cc1cc(C)nc(O[C@H](C(=O)O)[C@@]2(c3ccccc3)NCC(=O)N(CCc3ccccc3)c3ccccc32)n1 (racemic)
IC50 [1]: 21.5 nM
IC50 (Endothelin-1 receptor): 3.9 nM
pA2 (Endothelin receptor): 7.46

Cc1cc(C)nc(O[C@H](C(=O)O)[C@@]2(c3ccccc3)NCC(=O)N(Cc3ccc(F)c(F)c3F)c3ccccc32)n1 (racemic)
IC50 [1]: 49.7 nM
IC50 (Endothelin-1 receptor): 6.5 nM
pA2 (Endothelin receptor): 7.93

Cc1cc(C)nc(O[C@H](C(=O)O)[C@@]2(c3ccccc3)NCC(=O)N(Cc3ccc(OC(F)(F)F)cc3)c3ccccc32)n1 (racemic)
IC50 [1]: 32.2 nM
IC50 (Endothelin-1 receptor): 2.5 nM
pA2 (Endothelin receptor): 7.59

Cc1cc(C)nc(O[C@H](C(=O)O)[C@@]2(c3ccccc3)NCC(=O)N(Cc3c(F)cccc3Cl)c3ccccc32)n1 (racemic)
IC50 [1]: 10.9 nM
pA2 (Endothelin receptor): 7.8

Cc1cc(C)nc(O[C@H](C(=O)O)[C@@]2(c3ccccc3)NCC(=O)N(Cc3ccccc3F)c3ccccc32)n1 (racemic)
IC50 [1]: 33.1 nM
IC50 (Endothelin-1 receptor): 3.5 nM
pA2 (Endothelin receptor): 7.22

COC(=O)c1ccc(CN2C(=O)CN[C@](c3ccccc3)([C@H](Oc3nc(C)cc(C)n3)C(=O)O)c3ccccc32)cc1 (racemic)
IC50 [1]: 70.3 nM
IC50 (Endothelin-1 receptor): 7.4 nM
pA2 (Endothelin receptor): 6.98

Cc1cc(C)nc(O[C@H](C(=O)O)[C@@]2(c3ccccc3)NCC(=O)N(CCO)c3ccccc32)n1 (racemic)
IC50 [1]: 108 nM
IC50 (Endothelin-1 receptor): 6.9 nM
pA2 (Endothelin receptor): 6.79

Cc1cc(C)nc(O[C@H](C(=O)O)[C@@]2(c3ccccc3)NCC(=O)N(Cc3c(Cl)cccc3Cl)c3ccccc32)n1 (racemic)
IC50 [1]: 6.6 nM
IC50 (Endothelin-1 receptor): 1.8 nM
pA2 (Endothelin receptor): 8.55

Cc1cc(C)nc(O[C@H](C(=O)O)[C@@]2(c3ccccc3)NCC(=O)N(Cc3ccccc3C(F)(F)F)c3ccccc32)n1 (racemic)
IC50 [1]: 22.5 nM
IC50 (Endothelin-1 receptor): 104 nM

Cc1cc(C)c(CN2C(=O)CN[C@](c3ccccc3)([C@H](Oc3nc(C)cc(C)n3)C(=O)O)c3ccccc32)c(C)c1 (racemic)
IC50 [1]: 15.5 nM
IC50 (Endothelin-1 receptor): 6.7 nM
pA2 (Endothelin receptor): 8.1

COc1ccc(CN2C(=O)CN[C@](c3cccc(-c4ccccc4)c3)([C@H](Oc3nc(C)cc(C)n3)C(=O)O)c3ccccc32)cc1 (racemic)
IC50 [1]: 86.8 nM
IC50 (Endothelin-1 receptor): 3 nM
pA2 (Endothelin receptor): 7.28

Cc1cc(C)nc(O[C@H](C(=O)O)[C@@]2(c3ccccc3)NCC(=O)N(CCCc3ccccc3)c3ccccc32)n1 (racemic)
IC50 [1]: 18.3 nM
IC50 (Endothelin-1 receptor): 17.1 nM

Cc1ccc(O[C@H](C(=O)O)[C@@]2(c3ccccc3)NCC(=O)N(Cc3c(Cl)cccc3Cl)c3ccccc32)cc1 (racemic)
IC50 [1]: 966 nM
IC50 (Endothelin-1 receptor): 156 nM

COc1cc(OC)cc(O[C@H](C(=O)O)[C@@]2(c3ccccc3)NCC(=O)N(C)c3cc(OC)c(OC)cc32)c1 (racemic)
IC50 [1]: 8030 nM
IC50 (Endothelin-1 receptor): 443 nM

Cc1cc(C)nc(O[C@H](C(=O)O)[C@@]2(c3ccccc3)NCC(=O)N(Cc3cc(F)ccc3F)c3ccccc32)n1 (racemic)
IC50 [1]: 32.9 nM
IC50 (Endothelin-1 receptor): 6.7 nM

CCCCC[C@]1([C@H](Oc2nc(C)cc(C)n2)C(=O)O)NCC(=O)N(Cc2ccc(OC)cc2)c2ccccc21 (racemic)
IC50 [1]: 73.6 nM
IC50 (Endothelin-1 receptor): 355 nM

Cc1cc(C)nc(O[C@H](C(=O)O)[C@@]2(c3ccccc3)NCC(=O)N(Cc3ccc(C(F)(F)F)cc3)c3ccccc32)n1 (racemic)
IC50 [1]: 47.1 nM
IC50 (Endothelin-1 receptor): 17 nM

Cc1cc(C)nc(O[C@H](C(=O)O)[C@@]2(c3ccccc3)NCC(=O)N(CCN3CCOCC3)c3ccccc32)n1 (racemic)
IC50 [1]: 743 nM
IC50 (Endothelin-1 receptor): 126 nM

Cc1cc(C)nc(O[C@H](C(=O)O)[C@@]2(c3ccccc3)NCC(=O)N(Cc3ccc(F)c(F)c3)c3ccccc32)n1 (racemic)
IC50 [1]: 32.8 nM
IC50 (Endothelin-1 receptor): 6.5 nM

Cc1cc(C)nc(O[C@H](C(=O)O)[C@@]2(c3ccccc3)NCCOc3ccccc32)n1 (racemic)
IC50 [1]: 3640 nM
IC50 (Endothelin-1 receptor): 69.8 nM

Cc1cc(C)nc(O[C@H](C(=O)O)[C@@]2(c3ccccc3)NCC(=O)N(Cc3cc(F)c(F)c(F)c3)c3ccccc32)n1 (racemic)
IC50 [1]: 25.3 nM
IC50 (Endothelin-1 receptor): 11.8 nM

Cc1cc(C)nc(O[C@H](C(=O)O)[C@@]2(c3ccccc3)NCC(=O)N(Cc3ccc(C(=O)O)cc3)c3ccccc32)n1 (racemic)
IC50 [1]: 3530 nM
IC50 (Endothelin-1 receptor): 123 nM

Cc1cc(C)nc(O[C@H](C(=O)O)[C@@]2(c3ccccc3)NCC(=O)N(Cc3ccc(C(C)(C)C)cc3)c3ccccc32)n1 (racemic)
IC50 [1]: 24.1 nM
IC50 (Endothelin-1 receptor): 17.1 nM

COc1ccc(CN2C(=O)CN[C@](c3ccc(C)cc3)([C@H](Oc3nc(C)cc(C)n3)C(=O)O)c3ccccc32)cc1
IC50 [1]: 181 nM
IC50 (Endothelin-1 receptor): 221 nM

CSc1cnc(O[C@H](C(=O)O)[C@@]2(c3ccccc3)NCC(=O)N(C)c3ccccc32)nc1 (racemic)
IC50 [1]: > 10000 nM
IC50 (Endothelin-1 receptor): 6600 nM

Cc1cc(C)nc(O[C@H](C(=O)O)[C@@]2(c3ccccc3)NCC(=O)N(CC3CC3)c3ccccc32)n1 (racemic)
IC50 [1]: 87.8 nM
IC50 (Endothelin-1 receptor): 7.3 nM

Cc1cc(C)nc(O[C@H](C(=O)O)[C@@]2(c3ccccc3)NCc3nnc(CC(=O)O)n3-c3ccccc32)n1 (racemic)
IC50 [1]: 261 nM
IC50 (Endothelin-1 receptor): 58.8 nM

Cc1cc(C)nc(O[C@H](C(=O)O)[C@@]2(c3ccccc3)NCC(=O)N(Cc3ccc(Br)cc3)c3ccccc32)n1 (racemic)
IC50 [1]: 119 nM
IC50 (Endothelin-1 receptor): 25.8 nM

Cc1cc(C)nc(O[C@H](C(=O)O)[C@@]2(c3ccccc3)NCC(=O)N(Cc3ccc(-c4ccccc4)cc3)c3ccccc32)n1 (racemic)
IC50 [1]: 534 nM
IC50 (Endothelin-1 receptor): 102 nM

Cc1cc(C)nc(O[C@H](C(=O)O)[C@@]2(c3ccccc3)NCC(=O)N(Cc3ccccc3OC(F)(F)F)c3ccccc32)n1 (racemic)
IC50 [1]: 74.9 nM
IC50 (Endothelin-1 receptor): 98.6 nM

From ChEMBL document CHEMBL1149183, “Novel benzo[1,4]diazepin-2-one derivatives as endothelin receptor antagonists” (J Med Chem, 2004)
